Measured values from US8975246B2, “Bile acid or bile salt fatty acid conjugates” (Galmed Research and Development Ltd., priority 2001, dated 2015).

Tested on: Inbred C57J/L mice
Assay: Liver lipid/protein ratio, mice on high fat lithogenic diet
Type: in vivo
Details: BAFAC 150 mg/Kg daily by gavage, 5 weeks
Protocol: Inbred C57J/L mice, 4 weeks old and weighing approx. 20 gm (Jackson Lab. Maine, USA) were used. They were fed for 5 weeks a high fat lithogenic diet consisting of: Cholesterol 1%, Cholic Acid 0.5%, lard 10%, butter 6%, palmitic acid 1.2% and corn oil 2% added (w/w) to their regular diet. In addition to the diet the animals were given daily, by gavage, either a BAFAC (150 mg/Kg) suspended in saline or an equal volume of saline only. The BAFACs were conjugates of cholic acid (at position 3) with either Palmitic Acid (C-16) or Arachidic Acid (C-20) or Behenic Acid (C-22) using an amide bond. The controls (n=5) received saline, the test animals received either the C-16 conjugate (n=5), the C-20 conjugate (n=5) or the C-22 conjugate (n=3). After 5 weeks, following an overnight fast, the animals were anesthetized using ketamine, the liver was removed, and the animals were sacrificed by ketamine overdose. A 0.5 gm sample of liver was homogenized in 5 ml of buffered saline. Liver lipids were extracted from the homogenate by the Folch method using chloroform:methanol (2:1, vol/vol). Half a ml of the homogenate were extracted in 5 ml of the Folch solution. After evaporation of the solvent the lipids were weighed and reevaporated several times until constant weight was obtained. The proteins were quantified in another aliquot of the homogenate according to the method of Bradford. (Bradford M. M., Annal Biochem. 1976, 72:248).
The lipid protein ratio (mg/mg) was calculated. The results for each group are given as means (+St. Dev.) The group values were: […]

SMILES | lipid protein ratio in liver, mean (+St. Dev.) [mg/mg]
CCCCCCCCCCCCCCCC(=O)NC1CCC2(C)C(C1)CC(O)C1C2CC(O)C2(C)C(C(C)CCC(=O)O)CCC12 (centres unmarked) [C-16 BAFAC] | 2.25 ± 1.20
CCCCCCCCCCCCCCCCCCCCCC(=O)NC1CCC2(C)C(C1)CC(O)C1C2CC(O)C2(C)C(C(C)CCC(=O)O)CCC12 (centres unmarked) [C-22 BAFAC] | 3.00 ± 1.08
